Assay: lipid maldigestion or malabsorption animal model (Orlistat): EPA incorporation in red blood cell lipids
Assay type: in vivo, rats
Protocol: The inventors tested their concept in a lipid maldigestion/malabsorption animal model. The malabsorption condition was obtained using Orlistat®, a well known pancreatic and gastric lipases inhibitor. Animals were fed with long-chain polyunsaturated fatty acid (LC-PUFA) supplements containing mainly eicosapentaenoic (EPA) acid. Fish oil was used as a source of triacylglycerols and different EPA glycerides, for example those of FIG. 1, were evaluated. At different time intervals the fatty acid profile of red blood cell and plasma lipids was assessed. At the end of the experiment, fatty acid profiles of different tissues were determined. […] However, if LC-PUFA are provided as sn-1(3) MAGs the incorporation in tissue is not altered in conditions of lipid malabsorption/maldigestion.
Treatments: Control rats fed fish oil with or without Orlistat and rats fed with MAGs described in FIG. 1. Values are means±SEM (n=6).
The concept was tested in a lipid maldigestion or malabsorption animal model. The maldigestion or malabsorption condition was obtained using Orlistat, a well known pancreatic and gastric lipases inhibitor. Animals were fed during 21 days with long-chain polyunsaturated fatty acid (LC-PUFAs) supplements containing mainly eicosapentaenoic (EPA) acid. Fish oil was used as a source of triacylglycerols and the different EPA glycerides provided in FIG. 1 and purchased from Cognis GmbH, Germany, were evaluated. Orlistat was given at a level sufficient to decrease lipid absorption by 40%. A group receiving fish oil without Orlistat was used as a positive control. At different time intervals (D-3, D7, D14 and D21), fatty acid profile of red blood cell and plasma lipids were performed. At the end of the experiment, fatty acid profiles of different tissues were determined.
The main objective was to follow the level of EPA in red blood cell and plasma lipids. The main comparison evaluated was the difference in EPA level between groups receiving EPA containing MAGs (FIG. 1) in combination with Orlistat and the positive control group […].

Row | SMILES | effect on EPA incorporation in red blood cells (group receiving fish oil in combination or not with Orlistat, validates the model) | level of EPA incorporated in red blood cells, compared with the fish oil group (without Orlistat) (rats fed MAGs in combination with Orlistat, day 7, FIG. 2) | level of EPA incorporated in red blood cells, compared with the fish oil+Orlistat group (rats fed MAGs in combination with Orlistat, day 7, all P values lower than 0.05, FIG. 2) | fatty acid absorption compared with fish oil under normal conditions (under maldigestion/malabsorption conditions, FIG. 2)
1 | CCCCCCCCCCC[C@@H](C[C@@H]1OC(=O)[C@H]1CCCCCC)OC(=O)[C@H](CC(C)C)NC=O [Orlistat, reference compound] | decrease EPA incorporation in red blood cells | – | – | –
2 | CC/C=C\C/C=C\C/C=C\C/C=C\C/C=C\CCCC(=O)OCC(O)CO (stereo not shown) [sn-1(3) monoeicosapentaenoylglycerol, sn-1(3)-monoeicosapentaenoylglycerol] | – | even higher than the fish oil group | statistically higher | better absorbed
